Data taken from patent US6461997B1, “Triazole sulfones having herbicidal activity” (Monsanto Technology LLC, priority 1999, dated 2002).

Assays:
[1] = tested on: CIRAR (canada thistle (seedling)); test: Pre-emergence herbicidal activity, warm season; type: in vivo, Cirsium arvense; conditions: GR80 = lowest tested rate (300, 100, 30, 10 g/ha) with 80% or greater inhibition; approx. 14 days after treating; 30/21° C.
How it was run: (§1)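 Seeds sown in sterilised fertilised topsoil received surface-applied compound in 50:50 acetone/water, typically at 300, 100, 30 and 10 g/ha, then greenhouse-grown at 30/21° C (warm-season species) or 18/13° C (cool-season species). Percent inhibition versus untreated plants was scored at about 14 days, giving GR80; an asterisk marks activity short of 80% at the top rate.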

ALOMY (blackgrass) = test: Post-emergence herbicidal activity, cool season; type: in vivo, Alopecurus myosuroides; conditions: abraded plants sprayed at 300, 100, 30 and 10 g/ha; about 14 days after treatment
How it was run: (§2)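 Greenhouse-grown seedlings were abraded 9–14 days after planting, then sprayed at 300, 100, 30 and 10 g/ha in acetone:water (3,100 l/ha). Grown at 18/13 °C day/night, percent inhibition versus abraded unsprayed controls was scored about 14 days after treatment and GR80 assigned.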

[2] = tested on: AEGCY (jointed goatgrass); test: Pre-plant incorporated (PPI) herbicidal activity, cool season; type: in vivo, Aegilops cylindrica; conditions: for PPI activity GR80, AEGCY: pre-plant incorporated, lowest tested rate with 80% or greater inhibition, about 14 days
Description: (§3) In another set of tests, the pre-plant incorporated (PPI) activity of compounds of this invention was evaluated on the same species as for the pre-emergence tests described above. In the PPI tests the following procedure, designed to simulate PPI application, was used.
(§4) A pre-prepared topsoil mixture (described above) was placed in a pot and compacted to a depth of 1.0 to 1.25 cm from the top of the pot. Seeds of each of several monocotyledonous and dicotyledonous annual plant species were placed on top of the soil. A sufficient quantity of soil to cover the seeds and level fill the pot was weighed into an open container. A known amount of the test compound was dissolved or suspended in an organic solvent and applied by spraying to this cover soil. The cover soil was thoroughly mixed to distribute the test compound throughout the cover soil, and was then applied as a cover layer over the seeds. Untreated soil was used as a cover layer for control pots. After treatment the plants were placed in a greenhouse where they received 0.64 cm of overhead irrigation. All subsequent watering consisted of a light overhead mist and/or subirrigation as needed for germination and growth. Tables 9 and 10 below relate to warm season plant species which were placed after pre-emergence treatment in a greenhouse with a 30/21° C. day/night temperature regime. Tables 11 and 12 below relates to cool season plant species placed after pre-emergence treatment in a greenhouse or growth chamber with an 18/13° C. day/night temperature regime. Only the compounds of Examples 1, 6, 8, 11, 13 and 15-20 were included in PPI tests.
(§5) Approximately 14 days after planting and treating, the plants were observed and herbicidal efficacy recorded as percent inhibition by comparison with untreated plants.

[3] = tested on: AGRRE (quackgrass (seedling)); test: Post-emergence herbicidal activity, cool season; type: in vivo, Elymus repens; conditions: abraded plants sprayed at 300, 100, 30 and 10 g/ha; about 14 days after treatment
How it was run: as §2

[4] = tested on: PANMI (wild proso millet); test: Pre-emergence herbicidal activity, warm season; type: in vivo, Panicum miliaceum; conditions: for Pre-emergence activity (GR80) PANMI: GR80 = lowest tested rate (300, 100, 30, 10 g/ha) with 80% or greater inhibition, approx. 14 days after treating, 30/21° C.; for inhibition at 10 g/ha / inhibition at 30 g/ha / inhibition at 100 g/ha / inhibition at 300 g/ha / inhibition at 900 g/ha: Panicum miliaceum, pre-emergence application, read-out: Percent inhibition, weed PANMI
How it was run: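 Each pot received seeds on sterilized fertilized topsoil, a soil cover, and a surface spray of compound (300–10 g/ha, acetone/water 50:50). Plants grew about 14 days at 30/21 °C (PANMI, DIGSA) or 18/13 °C (ALOMY, POLCO) before inhibition was rated against untreated pots to give GR80.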

BROTE (downy brome) = test: Post-emergence herbicidal activity, cool season; type: in vivo, Bromus tectorum; conditions: abraded plants sprayed at 300, 100, 30 and 10 g/ha; about 14 days after treatment
How it was run: as §2

[5] = tested on: CHEAL (common lambsquarters); test: Pre-plant incorporated (PPI) herbicidal activity, warm season; type: in vivo, Chenopodium album; conditions: for Percent inhibition CHEAL: PPI application; for PPI activity (GR80) CHEAL: pre-plant incorporated, GR80 = lowest tested rate with 80% or greater inhibition, approx. 14 days after treating, 30/21° C.
Description: as §3, §4, §5

XANST (cocklebur) = test: as above; type: in vivo, Xanthium strumarium; conditions: PPI application; for inhibition at 10 g/ha / inhibition at 30 g/ha / inhibition at 100 g/ha / inhibition at 300 g/ha / inhibition at 900 g/ha: Xanthium strumarium, read-out: Percent inhibition XANST
Description: as §3, §4, §5

SETVI (green foxtail) = test: Pre-emergence herbicidal activity, cool season; type: in vivo, Setaria viridis; conditions: GR80 = lowest tested rate (300, 100, 30, 10 g/ha) with 80% or greater inhibition; approx. 14 days after treating; 18/13° C.
How it was run: as §1

[6] = weed, PPI application, 100 g/ha
[7] = weed, PPI application, 300 g/ha
[8] = weed, PPI application, 900 g/ha
[9] = Aegilops cylindrica, weed, PPI application, 30 g/ha, read-out: Percent inhibition AEGCY
[10] = Aegilops cylindrica, weed, PPI application, 100 g/ha, read-out: Percent inhibition AEGCY
[11] = Aegilops cylindrica, weed, PPI application, 300 g/ha, read-out: Percent inhibition AEGCY
[12] = Aegilops cylindrica, weed, PPI application, 900 g/ha, read-out: Percent inhibition AEGCY

SMILES	Pre-emergence activity (GR80) CIRAR [1] [g/ha]	Post-emergence activity GR80, ALOMY (ALOMY (blackgrass))	PPI activity GR80, AEGCY [2]	Percent inhibition AEGCY ([2]; weed, PPI application, 10 g/ha) [%]	Percent inhibition AEGCY ([2]; weed, PPI application, 30 g/ha) [%]	Percent inhibition AEGCY [2, 6] [%]	Percent inhibition AEGCY [2, 7] [%]	Percent inhibition AEGCY [2, 8] [%]	Post-emergence activity GR80, AGRRE [3]	Pre-emergence activity (GR80) PANMI [4] [g/ha]	Post-emergence activity GR80, BROTE (BROTE (downy brome))	Percent inhibition CHEAL ([5]; 30 g/ha) [%]	Percent inhibition CHEAL ([5]; 100 g/ha) [%]	Percent inhibition CHEAL ([5]; 300 g/ha) [%]	Percent inhibition CHEAL ([5]; 900 g/ha) [%]	PPI activity (GR80) CHEAL [5] [g/ha]	Percent inhibition XANST (XANST (cocklebur); 30 g/ha) [%]	Percent inhibition XANST (XANST (cocklebur); 100 g/ha) [%]	Percent inhibition XANST (XANST (cocklebur); 900 g/ha) [%]	Pre-emergence activity (GR80) SETVI (SETVI (green foxtail)) [g/ha]	further results
CCN(CC)C(=O)n1cnc(S(=O)(=O)C(F)(F)SCC(=O)OC)n1 [Example 11]	300	[empty]	[empty]	0	0	0	0	10	[empty]	300	[empty]	60	60	100	100	100	0	0	0	300	Percent inhibition CHEAL ([5]; 10 g/ha): 30%; Percent inhibition XANST (XANST (cocklebur); 10 g/ha): 0%; Percent inhibition XANST (XANST (cocklebur); 300 g/ha): 0%
CCN(CC)C(=O)n1cnc(S(=O)(=O)C(F)F)n1 [Example 15, 1-(N,N-diethylcarbamoyl)-3-(difluoromethylsulfonyl)-1,2,4-triazole]	30	[empty]	[empty]						[empty]	30	[empty]					100					inhibition at 10 g/ha [4]: 0%; inhibition at 30 g/ha [4]: 0%; inhibition at 100 g/ha [4]: 20%; inhibition at 300 g/ha [4]: 40%; inhibition at 900 g/ha [4]: 99%; inhibition at 10 g/ha (XANST (cocklebur); 10 g/ha): 0%; inhibition at 30 g/ha (XANST (cocklebur); 30 g/ha): 0%; inhibition at 100 g/ha (XANST (cocklebur); 100 g/ha): 0%; inhibition at 300 g/ha (XANST (cocklebur); 300 g/ha): 0%
C=C(C)CC(F)(F)S(=O)(=O)c1ncn(C(=O)N(CC)CC)n1 [Example 18]	300	[empty]	* (activity observed, at least at highest rate, but <80% inhibition)						[empty]	30	[empty]					30				30	inhibition at 10 g/ha ([2]; Aegilops cylindrica, weed, PPI application, 10 g/ha, read-out: Percent inhibition AEGCY): 0%; inhibition at 30 g/ha [2, 9]: 0%; inhibition at 100 g/ha [2, 10]: 0%; inhibition at 300 g/ha [2, 11]: 20%; inhibition at 900 g/ha [2, 12]: 10%; inhibition at 10 g/ha (XANST (cocklebur); 10 g/ha): 0%; inhibition at 30 g/ha (XANST (cocklebur); 30 g/ha): 0%; inhibition at 100 g/ha (XANST (cocklebur); 100 g/ha): 0%; inhibition at 300 g/ha (XANST (cocklebur); 300 g/ha): 0%; inhibition at 900 g/ha (XANST (cocklebur); 900 g/ha): 30%
CCN(CC)C(=O)n1cnc(S(=O)(=O)C(F)(F)Br)n1 [Example 1, 3-(bromodifluoromethylsulfonyl)-1-(N,N-diethylcarbamoyl)-1,2,4-triazole]	100	[empty]	[empty]						[empty]	100	[empty]					300				30	inhibition at 30 g/ha [2, 9]: 0%; inhibition at 100 g/ha [2, 10]: 0%; inhibition at 300 g/ha [2, 11]: 40%; inhibition at 900 g/ha [2, 12]: 60%; inhibition at 10 g/ha [4]: 0%; inhibition at 30 g/ha [4]: 0%; inhibition at 100 g/ha [4]: 30%; inhibition at 300 g/ha [4]: 100%; inhibition at 900 g/ha [4]: 90%; inhibition at 10 g/ha (XANST (cocklebur); 10 g/ha): 0%; inhibition at 30 g/ha (XANST (cocklebur); 30 g/ha): 0%; inhibition at 100 g/ha (XANST (cocklebur); 100 g/ha): 0%; inhibition at 300 g/ha (XANST (cocklebur); 300 g/ha): 0%; inhibition at 900 g/ha (XANST (cocklebur); 900 g/ha): 0%
CCN(CC)C(=O)n1cnc(S(=O)(=O)C(F)(F)SC)n1 [Example 9]	100	[empty]			0	20	30	40	[empty]	100	[empty]	95	100	100	100		0	0	60	100	Percent inhibition XANST (XANST (cocklebur); 300 g/ha): 30%
C=C(CC(F)(F)S(=O)(=O)c1ncn(C(=O)N(CC)CC)n1)C[Si](C)(C)C [Example 20]	100	[empty]	* (activity observed, at least at highest rate, but <80% inhibition)	0	0	0	0	0	[empty]	100	[empty]					30	0	0	50	100	Percent inhibition XANST (XANST (cocklebur); 10 g/ha): 0%
CCN(CC)C(=O)n1cnc(S(=O)(=O)C(F)(F)SCc2ccccc2)n1 [Example 10]	300	[empty]		0	0	20	30	20	[empty]	300	[empty]	60	60	100	100		0	0	10	300	Percent inhibition CHEAL ([5]; 10 g/ha): 30%; Percent inhibition XANST (XANST (cocklebur); 10 g/ha): 0%; Percent inhibition XANST (XANST (cocklebur); 300 g/ha): 0%
